# Measured values taken from patent EP4667582A1, “FACTOR XA REAGENT” (Instrumentation Laboratory Company, priority 2024, dated 2025).
# Counter-ions that a name gives are not always drawn.
# Experiments:
# Format in all cases: biochemical
# [1] = tested on: factor Xa; assay: factor Xa chromogenic assay with guanidine derivatives (substrate S-2732, mAbs/min at 405 nm); conditions: for factor Xa inhibition: Fig. 4, dilutions in water, 6nkat/mL factor Xa, 20mM HEPES pH 7.5, 1.5 mM S-2732, ranking between compounds; for factor Xa activity: Fig. 3, activity plotted against guanidine derivative or NaCl concentration, 6 nkat/mL factor Xa, 20mM Hepes pH 7.5, 37°C, 1.5mM S-2732
# Method: In this experiment, activity of factor Xa in the presence of guanidine sulfate and its derivatives (e.g., 1-methylguanidine sulfate, 1,1-dimethylguanidine sulfate, 1,1-diethylguanidine, N-benzyl, N-methylguanidine sulfate, 1,1,3,3-tetramethylgunidine and 1,1-dimethylbiguanide HCl) was evaluated using a chromogenic assay. In the experiment, each guanidine derivative was dissolved in deionized (DI) water to a final concentration of 100mM. A number of such guanidine dilutions were prepared. Guanidine derivative levels in the solutions were tested in triplicate at 37°C as follows: 40µL (microliters) of each guanidine derivative level was incubated for 20 seconds (s) to 60s before 40µL of 6 nkat/mL factor Xa in 20mM Hepes pH 7.5 buffer was added to the reaction. After an incubation period of 150s to 180s, 100µL of 1.5mM factor Xa chromogenic substrate S-2732™ was added to the reaction and milli-absorbance per minute (mAbs/min) at 405nm (nanometers) was measured after a 20s delay.
# In this experiment, the effects of guanidine sulfate and the guanidine derivatives: 1-methylguanidine sulfate, 1,1-dimethylguanidine sulfate, 1,1-diethylguanidine, and N-benzyl, N-methylguanidine sulfate were analyzed using a chromogenic assay. A number of dilutions were prepared in water with guanidine or a guanidine derivative of the type described herein. 40µL of each of the guanidine or guanidine derivatives were mixed for 20s to 60s with 40µL of 6nkat/mL factor Xa diluted in 20mM HEPES, pH 7.5 buffer. After an incubation period of 150s to 180s, 100µL of the factor Xa chromogenic substrate S-2732™ (1.5 mM) was added to each of the guanidine and factor Xa mixtures and each mixture was chromogenically measured at 405nm mAbs/min after a 20s delay.
# [2] = tested on: factor Xa; assay: factor Xa substrate turnover rates at a range of factor Xa levels, 1,1-dimethylguanidine compared to NaCl; conditions: Fig. 6; 22mM 1,1-dimethylguanidine compared to 33 mM NaCl; 37°C, 1.5mM S-2732
# Method: Guanidine derivatives modulate factor Xa enzymatic activity in a reaction, as explained previously, thereby slowing-down the reaction. As a result, greater amounts and/or concentrations of factor Xa can be used in a reaction when a guanidine derivative is incorporated into the reaction. In this experiment, factor Xa levels were tested in a reaction in triplicate at 37°C as follows: 40µL of factor Xa was incubated for 20s to 60s before 40µL of 100mM 1,1-dimethylguanidine or 150mM NaCl in water was added to the reaction. After an incubation period of 150s to 180s, 100µL of 1.5mM factor Xa chromogenic substrate S-2732™ was added to the reaction and mAbs/min at 405 nm was measured after a 20s delay. In Fig. 6, substrate turnover rates (e.g., coloring of the substrate) in the presence of 22mM 1,1-dimethylguanidine 601 were compared to substrate turnover rates in the presence of 33 mM NaCl 602. As evident from Fig. 6, greater amounts and/or concentrations of factor Xa can be added to the reaction in the presence of 1,1-dimethylguanidine to produce the same substrate turnover rates relative to NaCl. […] Greater amounts and/or concentrations of factor Xa facilitate detection of factor Xa inhibitors or reversal of such inhibitors in an assay, as noted previously.
# [3] = tested on: factor Xa; assay: factor Xa chromogenic activity in plasma sample containing dimethylguanidine (9:1 sample to factor Xa ratio); conditions: Fig. 7, 50mM compared to 25mM dimethylguanidine, 1.5 mM S-2732, 37°C
# Method: In this experiment, 180µL of a plasma sample containing dimethylguanidine (DMG) and 1.5 mM substrate S-2732™ were mixed with 20µL of factor Xa (a 9:1 sample to factor Xa ratio). The activity of factor Xa was determined at 37°C based on chromogenic activity of the substrate. The activity of factor Xa linearly correlates with the factor Xa concentration in the presence of dimethylguanidine. […] Thus, increasing the amount of dimethylguanidine in a sample reduces a rate of the reaction. In some implementations, dimethylguanidine can be added to a reaction at a concentration of up to about 500mM.
Compound,factor Xa inhibition [1],factor Xa activity [1],other results
CN(Cc1ccccc1)C(=N)N.O=S(=O)(O)O [N-benzyl N-methylguanidine sulfate],reduced factor Xa inhibition as compared to the factor Xa inhibition of mixtures containing dialkylated guanidine derivatives,–,–
NaCl [reference compound],–,activates factor Xa activity,–
"CCN(CC)C(=N)N.O=S(=O)(O)O [1,1-diethylguanidine sulfate]",largest extent of factor Xa inhibition,–,–
"CN(C)C(=N)NC(=N)N [1,1-dimethyl-biguanide, reference compound]",–,"modulate factor Xa dose-dependently, although less than 1-methylated guanidine sulfate",–
CNC(=N)N [1-methylguanidine sulfate],reduced factor Xa inhibition as compared to the factor Xa inhibition of mixtures containing dialkylated guanidine derivatives,modulates factor Xa dose-dependently,–
N=C(N)N [guanidine sulfate],least amount of reduction in factor Xa inhibition,"modulate factor Xa dose-dependently, although less than 1-methylated guanidine sulfate",–
"CN(C)C(=N)N [1,1-dimethylguanidine]",–,–,substrate turnover rates [2]: the reaction has been slowed-down; rate of the reaction (activity of factor Xa) [3]: slows reaction of the factor Xa in a sample greater than 25mM
"CN(C)C(=N)N.O=S(=O)(O)O [1,1-dimethylguanidine sulfate]",largest extent of factor Xa inhibition,–,–
